# According to PubChem BioAssay (NCI):
#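 Five compound concentrations were applied to cells in 96-well plates for 48 hours; endpoints were derived by simple linear interpolation of the resulting dose-response curve. TGI marks complete inhibition of growth.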 Where a SMILES comes first, the peptide text is derived from it.
# Legend:
# Experiment in all cases: growth of human tumour cells (NCI), 48 h
# M14 melanoma = tested on: M14 melanoma
# MALME-3M melanoma = tested on: MALME-3M melanoma
# NCI-H23 lung = tested on: NCI-H23 lung
# MCF7 breast = tested on: MCF7 breast
# SK-OV-3 ovarian = tested on: SK-OV-3 ovarian
# A549 NSCLC = tested on: A549 NSCLC
# OVCAR-5 ovarian = tested on: OVCAR-5 ovarian
# RPMI-8226 leukemia = tested on: RPMI-8226 leukemia
# T-47D breast = tested on: T-47D breast
# HOP-62 NSCLC = tested on: HOP-62 NSCLC
# NCI-H522 lung = tested on: NCI-H522 lung
# OVCAR-4 ovarian = tested on: OVCAR-4 ovarian
# NCI/ADR-RES ovarian = tested on: NCI/ADR-RES ovarian
# ACHN renal = tested on: ACHN renal
# HCT-15 colon = tested on: HCT-15 colon
# MDA-MB-435 = tested on: MDA-MB-435
# A498 renal = tested on: A498 renal
# UACC-257 melanoma = tested on: UACC-257 melanoma
# PC-3 prostate = tested on: PC-3 prostate
# OVCAR-3 ovarian = tested on: OVCAR-3 ovarian
SMILES,TGI (M14 melanoma) [µM],TGI (MALME-3M melanoma) [µM],TGI (NCI-H23 lung) [µM],TGI (MCF7 breast) [µM],TGI (SK-OV-3 ovarian) [µM],TGI (A549 NSCLC) [µM],TGI (OVCAR-5 ovarian) [µM],TGI (RPMI-8226 leukemia) [µM],TGI (T-47D breast) [µM],TGI (HOP-62 NSCLC) [µM],TGI (NCI-H522 lung) [µM],TGI (OVCAR-4 ovarian) [µM],TGI (NCI/ADR-RES ovarian) [µM],TGI (ACHN renal) [µM],TGI (HCT-15 colon) [µM],TGI (MDA-MB-435) [µM],TGI (A498 renal) [µM],TGI (UACC-257 melanoma) [µM],TGI (PC-3 prostate) [µM],TGI (OVCAR-3 ovarian) [µM]
CC(C)(C)OC(=O)CC(NC(=O)OC(C)(C)C)C(=O)NC(C(=O)O)C(O)c1ccccc1 (stereo not drawn),> 100,> 100,> 100,> 100,> 100,> 100,> 100,> 100,> 100,> 100,> 100,> 100,> 100,> 100,> 100,> 100,> 100,> 100,> 100,> 100
N#Cc1cc(N(CCCl)CCCl)c([N+](=O)[O-])cc1[N+](=O)[O-],> 100,> 100,> 100,> 100,> 100,> 100,> 100,> 100,57.2,> 100,> 100,> 100,> 100,> 100,> 100,> 100,> 100,> 100,> 100,> 100
CCC1c2[nH]c3ccccc3c2C[C@H]2C(=O)N3CCC[C@H]3C(=O)N12 (stereo partly drawn),> 100,> 100,> 100,> 100,> 100,> 100,> 100,> 100,> 100,> 100,> 100,> 100,> 100,> 100,> 100,> 100,> 100,> 100,> 100,> 100
Cc1sc(Nc2ccccc2[N+](=O)[O-])c(C#N)c1C,> 100,> 100,44.8,> 100,> 100,> 100,> 100,> 100,> 100,76.2,20.9,> 100,96.6,> 100,> 100,> 100,> 100,> 100,> 100,61.2
O=c1c2cc(-c3ccccc3)cnc2sn1-c1ccc(Oc2ccccc2)cc1,> 100,> 100,> 100,> 100,> 100,53.2,> 100,> 100,> 100,56.8,> 100,51.9,80.1,> 100,> 100,> 100,78.6,> 100,52.1,> 100
O=[N+]([O-])c1ccc(N/N=C(\c2ccccc2)c2ccccn2)nc1,13.8,14.4,14.9,8.45,24,24.2,85.1,> 100,26.9,31.2,12.7,> 100,2.02,18.7,> 28.5,> 95.3,> 100,29.8,> 44.7,23.3
COc1ccc2oc(=O)c(-c3nc4ccccc4o3)cc2c1,> 100,> 100,> 100,> 100,> 100,> 100,> 100,> 100,> 100,> 100,> 100,> 100,> 100,> 100,> 100,> 100,> 100,> 100,> 100,> 100
CC1OC(OC2C(CO)OC(O[C@H]3CC[C@@]4(C)C(=CC[C@H]5[C@@H]6C[C@@H]7O[C@](O)(CC[C@H](CO)COC8OC(CO)C(O)C(O)C8O)[C@@H](C)[C@@H]7[C@@]6(C)CC[C@@H]54)C3)C(OC3OC(C)C(O)C(O)C3O)C2O)C(O)C(O)C1O (stereo partly drawn),> 100,> 100,> 100,> 100,> 100,> 100,> 100,> 100,> 100,> 100,> 100,> 100,> 100,> 100,> 100,> 100,> 100,> 100,> 100,> 100
C/C=N\n1c(C)c(C#N)c(C#N)c1N,> 100,> 100,> 100,> 100,> 100,> 100,> 100,> 100,> 100,> 100,> 100,> 100,> 100,> 100,> 100,> 100,> 100,> 100,> 100,> 100
Cc1coc2c1C(=O)C(=O)c1c-2ccc2c1CCCC2(C)C,2.46,2.3,2.8,5.89,> 100,11.9,28.5,> 33.9,> 100,12.1,3.98,> 100,> 100,> 100,6.4,2.88,25.6,2.37,> 44.7,1.47
CC1=NN(C(=O)CC(=O)Nc2cccc(C)c2)C(=O)C1N=Nc1ccc(S(=O)(=O)c2ccc(N=NC3C(=O)N(C(=O)CC(=O)Nc4cccc(C)c4)N=C3C)cc2)cc1 (stereo not drawn),> 100,> 100,> 100,> 100,> 100,> 100,> 100,> 100,> 100,> 100,> 100,> 100,> 100,> 100,> 100,> 100,> 100,> 100,> 100,> 100
CNC(=O)CNC(=O)C(NC(=O)CNC(=O)C1CCCN1C(=O)C(C)NC(=O)C(NC(C)=O)C(C)C)C(C)C (stereo not drawn) (Ac-VAPGVG-NHMe; configuration not given here),> 100,> 100,> 100,> 100,> 100,–,> 100,> 100,> 100,> 100,> 100,> 100,> 100,> 100,> 100,> 100,> 100,> 100,> 100,> 100
CCOC1(OCC)N=C(N)C2(C#N)C3(C(=O)N(C(C)C)N=C3C)C12C#N (stereo not drawn),> 100,> 100,> 100,> 100,> 100,> 100,> 100,> 100,> 100,> 100,> 100,> 100,> 100,> 100,> 100,> 100,> 100,> 100,> 100,> 100
NC(=NCCN1CCCCCCC1)NO,> 100,> 100,> 100,> 100,> 100,> 100,> 100,> 100,> 100,> 100,> 100,> 100,> 100,43.4,> 100,> 100,> 100,> 100,> 100,> 100
CC(C)(C)C1(O)C=C(O)C(=O)N1NC(=O)c1ccccc1Nc1ccccc1 (stereo not drawn),> 100,> 100,> 100,> 100,> 100,> 100,> 100,> 100,> 100,–,81.2,> 100,> 100,> 100,> 100,> 100,> 100,72.2,> 100,31.9
COC(=O)C1(Cc2cccc(C)c2)Cc2c(C)cccc2C1=O (stereo not drawn),> 100,> 100,> 100,90.8,> 100,> 100,> 100,> 100,> 100,> 100,73.3,> 100,72.2,> 100,> 100,41.3,> 100,> 100,> 100,> 100
COc1cc(C2S/C(=C/c3ccccc3)C(=O)N2c2cc(Cl)c(Cl)cc2Cl)cc(OC)c1OC (stereo not drawn),> 100,> 84.4,> 100,> 100,> 100,> 100,> 100,> 62.4,> 100,> 100,> 66.5,> 100,> 100,> 100,> 100,> 100,> 78,> 100,> 100,> 100
O=C1N=NC(=O)N1c1cc(C(F)(F)F)cc(C(F)(F)F)c1,24.3,14.2,6.48,> 32.4,16.2,12,30.5,22.1,> 30.2,15,9.13,27.5,11.5,14.2,12,33.2,25.4,12.2,12.8,> 23
CCOC(=O)N1CCN(c2nc(C)n(-c3ccccc3)c(=S)c2C#N)CC1,> 100,> 100,> 100,> 100,> 100,> 100,> 100,> 100,> 100,> 100,> 66.3,> 100,> 100,> 100,> 100,> 100,> 100,> 100,> 100,> 100
COC(=O)CCc1ccc2c(c1)CC1(Cc3ccccc3C1)C2,> 100,> 100,> 100,> 100,> 100,> 100,> 100,> 100,> 100,> 100,> 100,> 100,> 100,> 100,> 100,> 100,> 100,> 100,> 100,> 100
CCC12CC(c3ccccc3)C(C(=O)N1)C(=O)N2 (stereo not drawn),> 100,> 100,> 100,> 100,> 100,> 100,> 100,> 100,> 100,> 100,> 100,> 100,> 100,> 100,> 100,> 100,> 100,> 100,> 100,> 100
CCC1c2[nH]c3ccccc3c2C[C@H]2C(=O)NC(CCCCNC(=O)OC(C)(C)C)C(=O)N12 (stereo partly drawn),40.9,50.5,59.6,> 100,> 100,> 100,> 100,63.3,> 100,> 100,50.9,> 100,74.6,> 100,> 100,44.3,> 100,66.8,58.7,63.4
Cc1ccc2c(c1)C(C1Cc3cccc(C)c3C1=O)OC2=O (stereo not drawn),> 100,> 100,> 100,> 100,> 100,> 100,> 100,88.3,> 100,> 100,> 100,> 100,> 100,> 100,> 100,> 100,> 100,> 100,> 100,> 100
